Literature values, collected in PMC12671102 (Drug Design, Development and Therapy, 2025).

Key:
subjects [1] = system: subjects
subjects [2] = conditions: Phase II study
[3] = moderate fat meal

SMILES | subjects with TEAEs (subjects [1]) | nephrolithiasis (subjects [2]) | subjects with increases in serum creatinine (subjects [2]) | effect of food on absorption [3]
O=C(c1cc(Br)c(O)c(Br)c1)N1CCOc2ccncc21 [URC102] | 41% | – | – | –
CC(C)(Sc1ccncc1-c1ccc(C#N)c2ccccc12)C(=O)O [verinurad] | – | no nephrolithiasis | 17.1% | delayed absorption
